Target: Serotonin (5-HT) receptor
Test: Competitive antagonist activity at 5-HT serotonin receptor in Sprague-Dawley rat stomach fundus model assessed as inhibition of 5-HT-induced contractile response

- pA2: 5.45
Compound: COc1ccc(OC)c(CCCN(C)C)c1

From ChEMBL document CHEMBL3272268 (J Med Chem, 1978)
